Experimental data published in patent US10881716B2, “Rapid-acting insulin formulation comprising a substituted anionic compound” (ADOCIA, priority 2012, dated 2021).
Where a name gives a salt, the structure may show the parent alone.

Experiments:
[1] = target: T1, lispro insulin (R6 hexameric form) (Homo sapiens, UniProt P01308, K53P/P52K); assay: Association state of lispro insulin evaluated by circular dichroism (CD signal at 251 nm); assay type: physicochemical; conditions: D1, FIG. 11; Humalog + 9.3 mM citrate, 6 mM EDTA, 7.3 mg/ml Compound 1, 20 mg/ml Polyanionic compound 1
T1 construct: purchased Eli Lilly Humalog®
T1 sequence (P01308 25-54 P52K/K53P limits assumed): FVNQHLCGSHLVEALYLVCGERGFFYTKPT
T1 sequence (P01308 90-110 limits assumed): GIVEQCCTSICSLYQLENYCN
Text: (§1) Circular dichroism makes it possible to study the secondary and quaternary structure of insulin. The insulin monomers are organized as dimers and as hexamers. […] Two hexameric forms exist, the R6 form and the T6 form. […] Loss of the CD signal at 251 nm is linked to destabilization of the hexamer (and thus the first sign of transformation of the hexamer into dimer).
as §1, with “dimer). […]” for “dimer).”

[2] = target: human insulin (hexameric form) (Homo sapiens, UniProt P01308); assay: Association state of human insulin evaluated by circular dichroism (CD signal at 275 nm); assay type: physicochemical; conditions: D2, FIG. 12; rhINS + 9.3 mM citrate, 6 mM EDTA, 7.3 mg/ml Compound 1, 20 mg/ml Polyanionic compound 1
Chain of human insulin (hexameric form) (P01308 25-54 limits assumed): as the sequence (P01308 25-54 P52K/K53P limits assumed) above, with K28P, P29K counted along it
Protocol: (§2) Circular dichroism makes it possible to study the secondary and quaternary structure of insulin. The insulin monomers are organized as dimers and as hexamers. […] The CD signal at 275 nm is characteristic of the hexameric form of insulin (hexamer signal at about −300°, signal for the dimer between −200° and −250°, and signal for the monomer below −200°. Loss of the CD signal at 275 nm is therefore characteristic of destabilization of the hexamer into dimers or monomers.
as §2, with “−200°).” for “−200°.”

[3] = target: BSA (bovine serum albumin) (Bos taurus, UniProt P02769); assay: Interaction with albumin, Centricon test (50 kDa membrane), UV assay of the filtrate; assay type: binding; conditions: 2.43 mg/mL of polysaccharide or compound, 13.3 mg/mL of albumin in PBS, about 100 mM of salts
Chain of BSA (bovine serum albumin) (P02769 25-607): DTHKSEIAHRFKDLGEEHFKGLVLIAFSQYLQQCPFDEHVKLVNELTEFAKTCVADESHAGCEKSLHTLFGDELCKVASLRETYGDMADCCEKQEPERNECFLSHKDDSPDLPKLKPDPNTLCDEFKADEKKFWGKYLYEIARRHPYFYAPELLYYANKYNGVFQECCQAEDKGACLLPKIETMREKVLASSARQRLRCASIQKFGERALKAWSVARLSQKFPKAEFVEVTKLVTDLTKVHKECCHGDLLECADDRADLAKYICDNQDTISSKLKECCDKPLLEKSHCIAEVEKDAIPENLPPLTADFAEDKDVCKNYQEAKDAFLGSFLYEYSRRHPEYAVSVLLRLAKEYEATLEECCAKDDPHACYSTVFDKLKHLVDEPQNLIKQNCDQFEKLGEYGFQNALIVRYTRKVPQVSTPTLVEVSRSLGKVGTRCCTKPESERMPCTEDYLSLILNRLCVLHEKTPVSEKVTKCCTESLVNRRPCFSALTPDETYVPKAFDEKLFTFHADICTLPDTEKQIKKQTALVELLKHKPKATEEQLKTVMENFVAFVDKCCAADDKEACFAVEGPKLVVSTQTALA
Protocol: F1: In order to determine the interactions between the various polysaccharides or compounds and a model protein such as albumin, a Centricon test (membrane with a cut-off threshold of 50 kDa) was performed. A solution of polysaccharide or of compound at 7.3 mg/mL was diluted three-fold in a solution of BSA (bovine serum albumin) at 20 mg/mL in PBS (concentration in the mixture: 2.43 mg/mL of polysaccharide or of compound, 13.3 mg/mL of albumin and about 100 mM of salts).
This mixture was centrifuged on a Centricon to make about half the volume pass through the membrane. The albumin is quantitatively retained on the Centricon membrane. The polysaccharides and compounds analyzed alone pass in large majority through the membrane (for the polysaccharides having the largest molar masses, about 20% of the polysaccharide is retained).
After centrifugation, the polysaccharide or compound is assayed by UV in the filtrate. The percentage of polysaccharide or compound bound to the albumin is calculated via the following equation:
(1-[polysaccharide or compound in the filtrate in the presence of albumin]/[polysaccharide or compound in the filtrate in the absence of albumin])*100

[4] = system: man; conditions: subcutaneously-injected, diabetic patients; cited from earlier work
[5] = target: human insulin (Homo sapiens, UniProt P01308); assay: Dissolution of human insulin at its isoelectric point (pH 5.3); assay type: binding; conditions: translucent = Yes, turbid = No
Chain of human insulin (P01308 25-54 limits assumed): as the sequence (P01308 25-54 P52K/K53P limits assumed) above, with K28P, P29K counted along it
Protocol: If an interaction exists, it is possible to dissolve the insulin at its isoelectric point. […] Solutions of compounds at different concentrations (8, 30 or 100 mg/mL) in water are prepared. […] The pH of the various solutions is adjusted to pH 5.3 by adding 200 mM acetic acid. The appearance of the solution is documented.

[6] = pH at which the insulin precipitates; cited from earlier work

## O=C(O)CN(CCN(CC(=O)O)CC(=O)O)CC(=O)O [EDTA, reference compound]
[1]
  impact on the CD signal at 251 nm / R6 hexameric form of lispro insulin: completely destructure the R6 form of lispro insulin
[2]
  impact on the CD signal at 275 nm / hexameric structure of human insulin: total dissociation of the hexamer into dimers

## Sodium Maltotriosemethylcarboxylate Functionalized with Sodium Alpha-Phenylglycinate [Compound 11]
[3]
  % Polysaccharide or % Compound bound to BSA: 35%

## Sodium Maltotriosemethylcarboxylate [Polyanionic compound 1]
[2]
  impact on the CD signal at 275 nm / hexameric structure of human insulin: no impact on the hexameric structure of human insulin

## human insulin: insulin obtained by synthesis or recombination, whose peptide sequence is the sequence of human insulin
[4]
  hypoglycemiant effect only after: 60 min

## Sodium Maltopentaosemethylcarboxylate Functionalized with Sodium L-Phenylalaninate [Compound 8]
[5]
  Dissolution of human insulin at 100 IU/mL with the compound at 4 mg/mL: No
  Dissolution of human insulin at 100 IU/mL with the compound at 15 mg/mL: No
  Dissolution of human insulin at 100 IU/mL with the compound at 50 mg/mL: Yes
[3]
  % Polysaccharide or % Compound bound to BSA: 27%

## Sodium Maltooctaosemethylcarboxylate Functionalized with Sodium L-Phenylalaninate [Compound 9]
[5]
  Dissolution of human insulin at 100 IU/mL with the compound at 4 mg/mL: No
  Dissolution of human insulin at 100 IU/mL with the compound at 15 mg/mL: No
  Dissolution of human insulin at 100 IU/mL with the compound at 50 mg/mL: Yes
[3]
  % Polysaccharide or % Compound bound to BSA: 43%

## Sodium Maltotriosemethylcarboxylate Functionalized with Sodium L-Tyrosinate [Compound 10]
[5]
  Dissolution of human insulin at 100 IU/mL with the compound at 4 mg/mL: No
  Dissolution of human insulin at 100 IU/mL with the compound at 15 mg/mL: No
  Dissolution of human insulin at 100 IU/mL with the compound at 50 mg/mL: Yes

## Lispro insulin: rapid insulin analog, active principle of Humalog
[6]
  isoelectric point: 5.3

## O=C(O)CC(O)(CC(=O)O)C(=O)O [citrate, sodium citrate]
[1]
  impact on the CD signal at 251 nm / R6 hexameric form of lispro insulin: virtually no impact on the CD signal at 251 nm
[2]
  impact on the CD signal at 275 nm / hexameric structure of human insulin: no impact on the hexameric structure of human insulin
